Values quoted from earlier work as cited in patent EP4219603A1, “A METHOD FOR PURIFICATION OF ORGANIC WATER-SOLUBLE POLYMERS FROM HYDROPHOBIC CONTAMINANTS” (Ustav experimentálnej fyziky SAV, v.v.i., priority 2022, dated 2023).
Read-outs that look alike come from different tables or passages of the source.

Conditions: logarithm of the octanol/water partition coefficient
[1] = contaminants from Examples 1 to 9 identified in GC-MS HS-SPME elugrams
[2] = model contaminants added to the polymer

log P [1]	log P [2]	Compound
7.13	–	CCCCCCCCCCCC [dodecane]
6.00	6.00	CCCCCCCCCCCC(=O)OCC [ethyl dodecanoate]
7.43	–	CCCCCCCCCCCCCC(=O)OC(C)C [isopropyl tetradecanoate]
5.73	–	CCCCC(CC)COC(=O)c1ccccc1 (stereo not drawn) [2-ethylhexyl benzoate]
8.19	–	CCCCCCCCCCCCCC [tetradecane]
10.32	10.32	CCCCCCCCCCCCCCCCCC [octadecane]
7.66	–	CCCCCCCCCCCCC [tridecane]
5.16	–	CCCCCCCCCCCC(C)=O [2-tridecanone]
9.26	–	CCCCCCCCCCCCCCCC [hexadecane]
6.35	–	CC(C)c1ccc2c(c1)CC[C@H]1[C@](C)(CO)CCC[C@]21C [dehydroabietol]
6.37	–	CCCCCCCCCCCC(=O)OC(C)C [isopropyl dodecanoate]

Compound	log P [1]	log P [2]
c1ccc(-c2ccccc2)cc1 [bifenyl]	4.00	–
C[C@]12CC[C@H]3C(=CCc4cc(OC(=O)c5ccccc5)ccc43)[C@@H]1CCC2=O [equilin benzoate]	5.63	–
Clc1cc(Cl)cc(-c2ccccc2)c1 [dichlorobiphenyl (PCB 14)]	5.41	5.41
CC(C)COC(=O)c1ccccc1C(=O)OCC(C)C [di-isobutyl phtalate]	4.46	–
